Laboratory results taken from patent EP4640686A1, “DEGRADER FOR DEGRADING BRD PROTEIN AND PHARMACEUTICAL COMPOSITION CONTAINING SAME” (Innocure Therapeutics, Inc., priority 2022, dated 2024).

Experiments:
Type in all cases: cell-based
[1] = tested on: SNU2972; test: Cancer cell antiproliferative activity / cell viability in SNU2972 cells (72 h treatment); conditions: read-out: BRD4 (IC50)
Description: (§1) The human breast cancer cell line [MDA-MB-231] was cultured in RPMI medium with the addition of 10% fetal bovine serum, penicillin [100U/ml], and streptomycin [[…]]. The synthesized compounds were prepared with a 10 mM or 50 mM raw material solution dissolved in DMSO [dimethyl sulfoxide], and were diluted sequentially and treated. [RPMI2650] and [SNU2972] were cultivated under specific conditions.
(§2) To observe cell growth inhibition, cells were dispensed in a concentration of 5,000 cells/well in a 96-well plate, and samples prepared at various concentrations were treated for 72 hours. The IC50 value (the concentration of the compound achieving 50% cytostaticism) is the average value of the results of three independent measurements.

[2] = target: T1, BRD4 (Homo sapiens, UniProt O60885); test: BRD4 protein degradation by western blotting in RPMI2650 cells (24 h treatment); parameters: To evaluate the resolution of PROTAC for BRD4 expressed in cells; endogenous in cells; host or cells: RPMI2650; conditions: read-out: BR04 (DC50), RPMI2650
Method in brief: (§3)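 Cells seeded at 5 X 10^5 cells/well and exposed to serially diluted compound for 24 hours. Western blot bands were quantified by densitometry, normalized to β-actin or GAPDH and expressed as % of 0.1% DMSO vehicle. DC50 is the concentration giving 50% loss of protein.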

[3] = tested on: RPMI2650; test: Cancer cell antiproliferative activity / cell viability in RPMI2650 cells (72 h treatment); conditions: Homo sapiens, RPMI-2650, RPMI2650, read-out: BRD4 (IC50)
Method in brief: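 RPMI2650 human cells were grown under specific culture conditions and seeded at 5,000 cells/well in 96-well plates. Test compounds, dissolved in DMSO as 10 mM or 50 mM stock solutions and serially diluted, were applied at various concentrations for 72 hours. IC50, the concentration giving 50% cytostasis, was averaged over three independent measurements.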

[4] = tested on: MDA-MB-231; test: Cancer cell antiproliferative activity / cell viability in MDA-MB-231 cells (72 h treatment); conditions: Homo sapiens, read-out: BRD4 (IC50)
Description: as §1, §2

[5] = target: T1, BRD4; test: BRD4 protein degradation by western blotting in MDA-MB-231 cells (24 h treatment); parameters: To evaluate the resolution of PROTAC for BRD4 expressed in cells; endogenous in cells; host or cells: MDA-MB-231
[6] = target: T2, BRD4-NUT (Homo sapiens, UniProt O60885+Q86Y26); test: BRD4-NUT protein degradation by western blotting in RPMI2650 cells (24 h treatment); conditions: read-out: BRD4-NUT (DC50), RPMI2650
T2 construct: endogenous in cells; host or cells: RPMI2650
Method in brief: as §3

Cc1sc2c(c1C)C(c1ccc(Cl)cc1)=N[C@@H](CC(=O)N1CC(N3CCN(c4ccc5c(=O)n(C6CCC(=O)NC6=O)nc(C)c5c4)CC3)C1)c1nnc(C)n1-2 (stereo partly drawn) [ICT-0000974, 3-(6-(4-(1-(2-((S)-4-(4-chlorophenyl)-2,3,9-trimethyl-6H-thieno[3,2-f][1,2,4]triazolo[4,3-a][1,4]diazepine-6-yl)acetyl)azetidine-3-il)piperazine-1-yl)-4-methyl-1-oxopthalazine-2(1H)-yl)piperidine-2,6-dione]
< 100 nM: IC50 [1] | DC50 [2] | IC50 [3] | IC50 [4] | DC50 [5] | DC50 [6]

Cc1sc2c(c1C)C(c1ccc(Cl)cc1)=N[C@@H](CC(=O)N1CCC(CN3CCN(c4ccc5c(C)nn(C6CCC(=O)NC6=O)c(=O)c5c4)CC3)CC1)c1nnc(C)n1-2 (stereo partly drawn) [ICT-0000982, 3-(7-(4-((1-(2-((S)-4-(4-chlorophenyl)-2,3,9-trimethyl-6H-thieno[3,2-f][1,2,4]triazolo[4,3-a][1,4]diazepine-6-day)acetyl)piperidine-4-il)methyl)piperazine-1-yl)4-methyl-1-oxopthalazine-2(1H)-yl)piperidine-2,6-dione]
< 100 nM: IC50 [1] | DC50 [2] | IC50 [3] | IC50 [4] | DC50 [5] | DC50 [6]
